Here are results for five compounds from article PMC3383612 (Chemical biology & drug design, 2011).

Assay [1] deals with T1, spASADH (Streptococcus pneumoniae, UniProt Q8DQ00).
T1 sequence (Q8DQ00 1-358): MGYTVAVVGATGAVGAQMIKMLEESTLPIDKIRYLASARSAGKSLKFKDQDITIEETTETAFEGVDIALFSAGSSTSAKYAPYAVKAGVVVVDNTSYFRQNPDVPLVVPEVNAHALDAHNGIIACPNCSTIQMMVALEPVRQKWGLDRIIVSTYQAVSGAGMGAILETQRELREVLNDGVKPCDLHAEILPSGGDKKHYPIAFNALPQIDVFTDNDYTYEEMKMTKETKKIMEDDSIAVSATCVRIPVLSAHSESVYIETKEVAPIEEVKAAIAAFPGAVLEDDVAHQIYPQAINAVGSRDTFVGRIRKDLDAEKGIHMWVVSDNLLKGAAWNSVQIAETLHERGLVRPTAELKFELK
To be noted: in words; ref [14]; cited from earlier work.

Assay [2] has as its target T1, spASADH. Briefly: Kinetic inhibition of spASADH. The assay is classed as biochemical.
For another assay, the target named is ASADH (Vibrio cholerae serotype O1, UniProt Q9KQG2). Briefly: Kinetic inhibition of ASADH by substrate analogue. The following applies: inhibitor of ASADH, enzyme form not stated. The class given is biochemical.
Chain of ASADH (Q9KQG2 whole entry): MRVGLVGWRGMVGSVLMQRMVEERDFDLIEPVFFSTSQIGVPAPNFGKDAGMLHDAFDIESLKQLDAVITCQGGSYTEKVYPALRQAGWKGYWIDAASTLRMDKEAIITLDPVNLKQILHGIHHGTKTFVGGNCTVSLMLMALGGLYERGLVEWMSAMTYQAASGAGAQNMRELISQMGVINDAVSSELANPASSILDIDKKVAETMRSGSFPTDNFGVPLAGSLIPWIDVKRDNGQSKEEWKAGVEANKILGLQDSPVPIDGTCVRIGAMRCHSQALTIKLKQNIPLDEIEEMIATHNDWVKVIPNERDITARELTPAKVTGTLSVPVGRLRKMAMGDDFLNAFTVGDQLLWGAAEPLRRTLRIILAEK

pKi: −log10 of the molar value.

As for `NC(CCCC(=O)O)C(=O)O` (racemic) [DL-2-aminoadipate], the inhibitory activity entry on spASADH [1] is listed as “little inhibitory activity”. What is called pKi is −log10 of the Ki, conventionally taken in molar units. Low values mean a large Ki, high ones a small Ki. At spASADH [2], `Nc1cc(C(=O)O)ccc1C(=O)O` [2-aminoterephthalate] showed a pKi of 3.11. Besides, the “enhanced affinity relative to terephthalic acid” value on spASADH [2] (ratio of Ki values) is “greater than 6 fold”.

`C=CC[S@+]([O-])C[C@H](N)C(=O)O` [S-allyl-L-cysteine sulfoxide]: the pKi on ASADH is 5.10. For the compound `O=C(O)c1ccc(C(=O)O)cc1` [Terephthalic acid, benzene-1,4-dicarboxylic acid], the pKi on spASADH [2] was roughly 2.30. Consider `O=C(O)C1CCC(C(=O)O)CC1` (stereo not drawn) [cyclohexane-1,4-dicarboxylate], for which the “higher affinity than 2-aminoterephthalate” value at spASADH [2] (ratio of Ki values) was determined as 2 fold.
